# What was measured:
# [1] = tested on: phospho AKT, phospho mTOR, phospho 4EBP in 4T1 tumors; test: Western blot assay of in vivo 4T1 tumor samples; design: species or system BALB/c mice; settings: single injection 5 mg/kg, 72 hours
# Method: For animal tissue, tumor stored in −80° C. were pulverized in a mortar and pestle using liquid nitrogen, then treated with RIPA buffer to extract the protein. Amount of protein was measured by BCA assay and equal amount of protein lysates were electrophoresed on a polyacrylamide gel, then transferred to polyvinylidene difluoride membrane, (BIO-RAD) and blocked in with 5% milk solution. Then membranes were incubated with appropriate concentration of primary antibody overnight at 4° C., followed by horseradish peroxidase-conjugated secondary antibody for 1 hour. Detection was done using G-box from SYNGENE and densitometric quantification was done by IMAGE-J software.
# For animal tissue, tumor stored in −80° C. were pulverized in a mortar and pestle using liquid nitrogen, then treated with RIPA buffer to extract the protein. Amount of protein was measured by BCA assay and equal amount of protein lysates were electrophoresed on a polyacrylamide gel, then transferred to polyvinylidene difluoride membrane, (Bic-Rad) and blocked in with 5% milk scullion. Then membranes were incubated with appropriate concentration of primary antibody (all antibodies from Cell Signalling Technology) overnight at 4° C., followed by horseradish peroxidase-conjugated secondary antibody for 1 hour. Detection was done using G-box from Syngene and densitometric quantification was done by image J™ software.
# [2] = tested on: K-Ras^LSL/+/Pten^fl/fl ovarian cancer; test: Efficacy study of PI103-SNPs in murine ovarian cancer tumor model; assay type: in vivo, mice; settings: after 3 doses, 5 mg/kg
# Method: Ovarian adenocarcinomas were induced in genetically engineered K-Ras^LSL/+/Pten^fl/fl mice via intrabursal delivery of adenovirus-carrying Cre recombinase. Tumor cells were also engineered to express luciferase once activated by Adeno-Cre to make tumor imaging possible before and after drug treatment. Once mice developed medium to large tumors, they were placed into one of four treatment groups (vehicle, Free-PI-103 5 mg/kg, PI-103-SNP 5 mg/kg, and iRGD-PI103-SNP 5 mg/kg) and all drugs were administered via tail vein injection. Tumor imaging in vivo was performed using an 1VIS Lumina II Imaging System. Quantification of bioluminescence was achieved by using Living Image Software 3.1 (Caliper Life Sciences). Images were taken a day prior to initial treatment (day 0, baseline image), after 3 treatments, and 1 d after 5 treatments.
# Ovarian adenocarcinomas were induced in genetically engineered K-ras isu+/Pten mice via intrabursal delivery of adenovirus-carrying Cre recombinase. Tumor cells were also engineered to express luciferase once activated by Adeno-Cre to make tumor imaging possible before and after drug treatment. […] Quantification of bioluminescence was achieved by using Living Image Software 3.1™ (Caliper Life Sciences). […]
smiles,measurement,setting,value
Oc1cccc(-c2nc(N3CCOCC3)c3oc4ncccc4c3n2)c1 [PI103],intratumoral Akt phosphorylation,[1],intratumoral Akt phosphorylation was inhibited
same,tumor luciferase bioluminescence,[2],significant tumor regression as compared to vehicle control
